# Results published in patent US8765784B2, “Positive allosteric modulators of MGLUR2” (Merck Sharp & Dohme Corp., priority 2010, dated 2014).
# Biological target: T1, human mGluR2 (Homo sapiens, UniProt Q14416)
# T1 construct: expressed in transfected cells
# Test: FLIPR Ca2+ mobilization assay, potentiation of mGluR2
# Assay type: cell-based
# Conditions: CHO dhfr- cells expressing recombinant human mGluR2 and Gα16; potentiation after EC20 glutamate (900 nM); read-out: IC50 (Representative FLIPR EC50 Values)
# Protocol: Activity in potentiating the mGluR2 receptor may be determined as follows. The compounds of the present invention are tested in a fluorescence laser imaging plate reader (FLIPR) based assay. This assay is a common functional assay to monitor Ca^2+ mobilization in whole cells expressing recombinant receptor coupled with a promiscuous G-protein. CHO dhfr-cells stably expressing recombinant human mGluR2 and Gα16 loaded with Fluo-4 AM (Invitrogen, Carlsbad Calif.) are treated with dose responses of compounds and the Ca^2+ response is monitored on a FLIPR384 (Molecular Devices, Sunnydale Calif.) for agonist activity. The potentiation response is monitored after a subsequent addition of an EC20 concentration of glutamate (900 nM). The maximum calcium response at each concentration of compound for agonist or potentiation are plotted as dose responses and the curves are fitted with a four parameters logistic equation giving EC50 and Hill coefficient using the iterative non linear curve fitting software program.
# T1 sequence (Q14416 19-872): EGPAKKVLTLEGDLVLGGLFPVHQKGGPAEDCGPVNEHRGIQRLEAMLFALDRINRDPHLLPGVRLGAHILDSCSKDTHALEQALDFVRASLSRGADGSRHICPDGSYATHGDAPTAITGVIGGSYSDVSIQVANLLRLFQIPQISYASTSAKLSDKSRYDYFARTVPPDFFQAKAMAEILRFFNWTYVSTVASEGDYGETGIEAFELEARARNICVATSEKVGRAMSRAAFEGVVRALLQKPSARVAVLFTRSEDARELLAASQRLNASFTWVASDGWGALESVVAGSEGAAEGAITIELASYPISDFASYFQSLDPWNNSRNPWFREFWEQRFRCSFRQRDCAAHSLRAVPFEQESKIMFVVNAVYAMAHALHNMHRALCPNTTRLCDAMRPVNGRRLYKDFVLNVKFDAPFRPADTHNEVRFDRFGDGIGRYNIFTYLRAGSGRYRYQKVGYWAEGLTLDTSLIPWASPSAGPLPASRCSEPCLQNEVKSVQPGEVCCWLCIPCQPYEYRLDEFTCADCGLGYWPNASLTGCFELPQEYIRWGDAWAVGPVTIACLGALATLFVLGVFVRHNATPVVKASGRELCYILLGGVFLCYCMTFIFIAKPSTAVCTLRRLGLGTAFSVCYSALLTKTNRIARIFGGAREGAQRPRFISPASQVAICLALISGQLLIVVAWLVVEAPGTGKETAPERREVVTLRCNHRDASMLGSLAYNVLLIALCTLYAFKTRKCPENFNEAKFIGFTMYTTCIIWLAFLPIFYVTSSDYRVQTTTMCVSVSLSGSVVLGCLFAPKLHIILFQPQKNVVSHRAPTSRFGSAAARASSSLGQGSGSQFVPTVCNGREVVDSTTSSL
row,SMILES,EC50
1,"Cn1c(=O)n(CC(C)(C)C)c2ccc(-c3cc(Oc4ccnc(C#N)c4)ccc3C#N)nc21 [Compound 16-3, 4-{4-cyano-3-[1-(2,2-dimethylpropyl)-3-methyl-2-oxo-2,3-dihydro-1H-imidazo[4,5-b]pyridin-5-yl]phenoxy}pyridine-2-carbonitrile]",8 nM
2,"COC(=O)NC(C)(C)c1ccc(C)c(-c2ccc3c(n2)n(C)c(=O)n3CC(C)(C)C)c1 [Compound 42-3, Methyl (1-{3-[1-(2,2-dimethylpropyl)-3-methyl-2-oxo-2,3-dihydro-1H-imidazo[4,5-b]pyridin-5-yl]-4-methylphenyl}-1-methylethyl)carbamate]",37 nM
3,"Cn1c(=O)n(CC(C)(C)C)c2ccc(-c3cccc(C(C)(C)O)c3F)nc21 [Compound 60-1, 1-(2,2-dimethylpropyl)-5-[2-fluoro-3-(1-hydroxy-1-methylethyl)phenyl]-3-methyl-1,3-dihydro-2H-imidazo[4,5-b]pyridin-2-one]",25 nM
4,"Cn1c(=O)n(CC(C)(C)C)c2ccc(-c3cccc(CN4CCc5onc(O)c5C4)c3F)nc21 [Compound 61-4, 1-(2,2-dimethylpropyl)-5-{2-fluoro-3-[(3-hydroxy-6,7-dihydroisoxazolo[4,5-c]pyridin-5(4H)-yl)methyl]phenyl}-3-methyl-1,3-dihydro-2H-imidazo[4,5-b]pyridin-2-one]",11 nM
5,"CC(O)C(=O)N1CCCC(c2cccc(-c3ccc4c(n3)n(C)c(=O)n4CC(C)(C)C)c2)C1 (stereo not shown) [Compound 65-6, 1-(2,2-dimethylpropyl)-5-{3-[1-(2-hydroxypropanoyl)piperidin-3-yl]phenyl}-3-methyl-1,3-dihydro-2H-imidazo[4,5-b]pyridin-2-one]",28 nM
6,"Cn1c(=O)n(CC(C)(C)C)c2ccc(-c3cccc(N4CCN(C(=O)c5ccon5)CC4)c3)nc21 [Compound 66-4, 1-(2,2-dimethylpropyl)-5-{3-[4-(isoxazol-3-ylcarbonyl)piperazin-1-yl]phenyl}-3-methyl-1,3-dihydro-2H-imidazo[4,5-b]pyridin-2-one]",45 nM

# More lines, now with the values ahead:
row,EC50,SMILES
1,34 nM,"Cn1c(=O)n(CC(C)(C)C)c2ccc(-c3cc(CN4CCS(=O)(=O)CC4)ccc3C#N)nc21 [Compound 21-11, 2-[1-(2,2-dimethylpropyl)-3-methyl-2-oxo-2,3-dihydro-1H-imidazo[4,5-b]pyridin-5-yl]-4-[(1,1-dioxidothiomorpholin-4-yl)methyl]benzonitrile]"
2,21 nM,"Cn1c(=O)n(CC(C)(C)C)c2ccc(-c3cc(CN4CCN(S(C)(=O)=O)CC4)ccc3C#N)nc21 [Compound 21-45, 2-[1-(2,2-dimethylpropyl)-3-methyl-2-oxo-2,3-dihydro-1H-imidazo[4,5-b]pyridin-5-yl]-4-{[4-(methylsulfonyl)piperazin-1-yl]methyl}benzonitrile]"
3,74 nM,"CC(=O)N1CCN(Cc2ccc(C#N)c(-c3ccc4c(n3)n(C)c(=O)n4CC(C)(C)C)c2)CC1 [Compound 21-47, 4-[(4-acetylpiperazin-1-yl)methyl]-2-[1-(2,2-dimethylpropyl)-3-methyl-2-oxo-2,3-dihydro-1H-imidazo[4,5-b]pyridin-5-yl]benzonitrile]"
4,226 nM,"CC(=O)N1CCN(Cc2ccc(C)c(-c3ccc4c(n3)n(C)c(=O)n4CC(C)(C)C)c2)CC1 [Compound 51-9, 5-{5-[(4-acetylpiperazin-1-yl)methyl]-2-methylphenyl}-1-(2,2-dimethylpropyl)-3-methyl-1,3-dihydro-2H-imidazo[4,5-b]pyridin-2-one]"
5,26 nM,"Cc1ccc(CN2CCN(S(C)(=O)=O)CC2)cc1-c1ccc2c(n1)n(C)c(=O)n2CC(C)(C)C [Compound 51-10, 1-(2,2-dimethylpropyl)-3-methyl-5-(2-methyl-5-{[4-(methylsulfonyl)piperazin-1-yl]methyl}phenyl)-1,3-dihydro-2H-imidazo[4,5-b]pyridin-2-one]"
6,35 nM,"Cc1ccc(CN2CCN(S(C)(=O)=O)CC2)cc1-c1ccc2c(n1)n(C)c(=O)n2CC1CC1(F)F (stereo not shown) [Compound 56-4, 1-[(2,2-difluorocyclopropyl)methyl]-3-methyl-5-(2-methyl-5-{[4-(methylsulfonyl)piperazin-1-yl]methyl}phenyl)-1,3-dihydro-2H-imidazo[4,5-b]pyridin-2-one]"
7,43 nM,"Cc1ccc(CC(C)(C)O)cc1-c1ccc2c(n1)n(C)c(=O)n2CC(C)(C)C [Compound 81-3, 1-(2,2-dimethylpropyl)-5-[5-(2-hydroxy-2-methylpropyl)-2-methylphenyl]-3-methyl-1,3-dihydro-2H-imidazo[4,5-b]pyridin-2-one]"
